pIC50: −log10 of the molar value. Structures can show the parent of a compound that is named as a salt. Where two headings read alike, the source gives them in different places.
Experiments:
human BACE-1 = human BACE-1 (Homo sapiens (Human), UniProt P56817); experiment: Test 1: Inhibition of Human BACE-1; type: biochemical; settings: recombinant BACE-1, pH 4.5, fluorescence-quenched substrate
Protocol: Test 1: Inhibition of Human BACE-1
(§1) Recombinant BACE-1 (extracellular domain, expressed in baculovirus and purified using standard methods) at 0.1 to 1 nM concentrations is incubated with the test compound at various concentrations for 1 hour at room temperature in 100 mM acetate buffer, pH 4.5, containing 0.1% CHAPS. Activity was measured using a final concentration of 3 μM of the fluorescence-quenched substrate Q-C(HSO3)-Ile-Asp-Leu-Ala-Val-Leu-Asp-HN—CH2—CH2-Mca, where Q=2-nitro-5-amino benzoic acid and Mca=7-methoxy-4-coumarinyl acetic acid. […] Fluorescence increase was followed for 15 min, in 1 minute's intervals. The fluorescence/time slopes were calculated from duplicate wells and from wells without inhibitor and the IC50 values were calculated using a logistic 4-parameter model.

human BACE-2 = human BACE-2 (Homo sapiens (Human), UniProt Q9Y5Z0); experiment: Test 2: Inhibition of Human BACE-2; type: biochemical; settings: recombinant BACE-2, pH 4.5, fluorescence-quenched substrate
Protocol: Test 2: Inhibition of Human BACE-2
as §1, with “BACE-2” for “BACE-1”

[1] = test system: amyloid peptide 1-40 release; experiment: Test 4: Inhibition of Cellular Release of Amyloid Peptide 1-40; type: cell-based; settings: Chinese hamster ovary cells transfected with the human gene for amyloid precursor protein, 24 hours, read-out: Amyloid-β1-40 release IC50
Protocol: Chinese hamster ovary cells are transfected with the human gene for amyloid precursor protein. The cells are plated at a density of 8000 cells/well into 96-well microtiter plates and cultivated for 24 hours in DMEM cell culture medium containing 10% FCS. The test compound is added to the cells at various concentrations, and the cells are cultivated for 24 hours in the presence of the test compound. […] The potency of the compound is calculated from the percentage of inhibition of amyloid peptide release as a function of the test compound concentration.

human BACE-1, sequence (P56817 46-457): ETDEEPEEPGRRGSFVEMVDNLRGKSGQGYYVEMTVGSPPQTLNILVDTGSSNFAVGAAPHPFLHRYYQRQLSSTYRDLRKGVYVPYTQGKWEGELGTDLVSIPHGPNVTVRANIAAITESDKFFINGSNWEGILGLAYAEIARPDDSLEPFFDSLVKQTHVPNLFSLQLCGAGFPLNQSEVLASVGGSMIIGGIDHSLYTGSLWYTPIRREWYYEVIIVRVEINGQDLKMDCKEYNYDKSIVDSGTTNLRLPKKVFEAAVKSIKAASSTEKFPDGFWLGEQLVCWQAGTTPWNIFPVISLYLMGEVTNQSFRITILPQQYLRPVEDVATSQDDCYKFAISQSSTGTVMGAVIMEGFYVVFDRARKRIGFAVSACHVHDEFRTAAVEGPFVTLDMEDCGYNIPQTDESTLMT
human BACE-2, sequence (Q9Y5Z0 63-473): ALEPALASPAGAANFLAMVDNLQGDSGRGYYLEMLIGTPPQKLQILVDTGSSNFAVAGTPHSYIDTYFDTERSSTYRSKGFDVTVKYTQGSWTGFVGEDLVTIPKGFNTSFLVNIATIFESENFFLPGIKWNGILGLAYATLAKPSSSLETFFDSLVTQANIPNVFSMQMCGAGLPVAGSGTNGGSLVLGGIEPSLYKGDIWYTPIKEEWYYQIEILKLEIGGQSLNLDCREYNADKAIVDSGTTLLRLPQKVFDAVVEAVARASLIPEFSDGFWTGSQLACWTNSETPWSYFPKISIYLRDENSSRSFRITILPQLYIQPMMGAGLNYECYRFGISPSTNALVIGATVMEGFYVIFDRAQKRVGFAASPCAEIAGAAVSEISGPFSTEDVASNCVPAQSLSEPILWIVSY

| pIC50 (human BACE-1) | pIC50 (human BACE-2) | pIC50 ([1]; Cricetulus griseus) | Compound | pIC50 [1] |
| --- | --- | --- | --- | --- |
| 5.82 | 5.72 | 5.54 | CC1(c2cccc(Nc3nsc4cc(Br)ccc34)c2)COCC(N)=N1 (centres unmarked) [Example 1, [3-(5-Amino-3-methyl-3,6-dihydro-2H-[1,4]oxazin-3-yl)-phenyl]-(6-bromo-benzo[d]isothiazol-3-yl)-amine] |  |
| 5.28 | < 5.00 | 5.46 | Cn1nc(Nc2cccc(C3(C)COCC(N)=N3)c2)c2ccc(Br)cc21 (centres unmarked) [Example 2, [3-(5-Amino-3-methyl-3,6-dihydro-2H-[1,4]oxazin-3-yl)-phenyl]-(6-bromo-1-methyl-1H-indazol-3-yl)-amine] |  |
| 5.05 | 5.49 | 5.15 | CC1(c2cccc(Nc3noc4ccccc34)c2)COCC(N)=N1 (centres unmarked) [Example 3, [3-(5-Amino-3-methyl-3,6-dihydro-2H-[1,4]oxazin-3-yl)-phenyl]-benzo[d]isoxazol-3-yl-amine] |  |
| 5.72 | 5.62 | 6.42 | CC1(c2cc(NCc3ccco3)ccc2F)COCC(N)=N1 (centres unmarked) [Example 4, 5-{2-Fluoro-5-[(furan-2-ylmethyl)-amino]-phenyl}-5-methyl-5,6-dihydro-2H-[1,4]oxazin-3-ylamine] |  |
| 5.44 | 5.28 | 5.85 | NC1=NC(CF)(c2cc(NCc3ccc(Br)cc3Cl)ccc2F)COC1 (centres unmarked) [Example 5, 5-[5-(4-Bromo-2-chloro-benzylamino)-2-fluoro-phenyl]-5-fluoromethyl-5,6-dihydro-2H-[1,4]oxazin-3-ylamine] |  |
| 5.21 | 5.08 | 6.13 | NC1=NC(c2cc(NCc3cc(Br)co3)ccc2F)(C(F)F)COC1 (centres unmarked) [Example 6, 5-{5-[(4-Bromo-furan-2-ylmethyl)-amino]-2-fluoro-phenyl}-5-difluoromethyl-5,6-dihydro-2H-[1,4]oxazin-3-ylamine] |  |
| 7.44 | 7.49 | 7.66 | NC1=N[C@@](c2cc(Nc3ncnc4cc(Cl)cnc34)ccc2F)(C(F)F)COC1 [Example 7] |  |
| 7.68 | 7.96 | 7.48 | NC1=N[C@@](c2cc(Nc3nccc4cc(Br)cnc34)ccc2F)(C(F)F)COC1 [Example 8, [3-((R)-5-Amino-3-difluoromethyl-3,6-dihydro-2H-[1,4]oxazin-3-yl)-4-fluoro-phenyl]-(3-bromo-[1,7]naphthyridin-8-yl)-amine] |  |
| 7.74 | 7.52 | 8.30 | N#Cc1cnc2c(Nc3ccc(F)c([C@]4(C(F)F)COCC(N)=N4)c3)nccc2c1 [Example 9, 8-[3-((R)-5-Amino-3-difluoromethyl-3,6-dihydro-2H-[1,4]oxazin-3-yl)-4-fluoro-phenylamino]-[1,7]naphthyridine-3-carbonitrile] |  |
| 6.22 | 5.09 | 7.62 | COCCOc1cnc2c(Nc3ccc(F)c([C@]4(C(F)F)COCC(N)=N4)c3)nccc2c1 [Example 10, [3-((R)-5-Amino-3-difluoromethyl-3,6-dihydro-2H-[1,4]oxazin-3-yl)-4-fluoro-phenyl]-[3-(2-methoxy-ethoxy)-[1,7]naphthyridin-8-yl]-amine] |  |
| 5.72 | 5.25 | 6.60 | NC1=N[C@@](c2cc(Nc3nccc4cc(OCCCl)cnc34)ccc2F)(C(F)F)COC1 [Example 11] |  |
| 6.46 | 7.14 | 7.07 | Cc1cn2ccnc(Nc3ccc(F)c([C@]4(C(F)F)COCC(N)=N4)c3)c2n1 [Example 12, [3-((R)-5-Amino-3-difluoromethyl-3,6-dihydro-2H-[1,4]oxazin-3-yl)-4-fluoro-phenyl]-(2-methyl-imidazo[1,2-a]pyrazin-8-yl)-amine] |  |
| 6.24 | 5.85 | 6.66 | NC1=N[C@@](c2cc(Nc3nccn4c(Br)cnc34)ccc2F)(C(F)F)COC1 [Example 14, [3-((R)-5-Amino-3-difluoromethyl-3,6-dihydro-2H-[1,4]oxazin-3-yl)-4-fluoro-phenyl]-(3-bromo-imidazo[1,2-a]pyrazin-8-yl)-amine] |  |
| 6.52 | 7.05 | 7.25 | COc1cccnc1Nc1ccc(F)c([C@]2(C(F)F)COCC(N)=N2)c1 [Example 15, (R)-5-Difluoromethyl-5-[2-fluoro-5-(3-methoxy-pyridin-2-ylamino)-phenyl]-5,6-dihydro-2H-[1,4]oxazin-3-ylamine] |  |
| 5.07 | < 5.00 | 5.64 | NC1=N[C@@](c2cc(Nc3ncccn3)ccc2F)(C(F)F)COC1 [Example 16, (R)-5-Difluoromethyl-5-[2-fluoro-5-(pyrimidin-2-ylamino)-phenyl]-5,6-dihydro-2H-[1,4]oxazin-3-ylamine] |  |
| 5.74 | 6.17 | 6.40 | COc1ccnc(Nc2ccc(F)c([C@]3(C(F)F)COCC(N)=N3)c2)n1 [Example 17, (R)-5-Difluoromethyl-5-[2-fluoro-5-(4-methoxy-pyrimidin-2-ylamino)-phenyl]-5,6-dihydro-2H-[1,4]oxazin-3-ylamine] |  |
| 5.62 | 5.89 | 6.17 | COc1nccnc1Nc1ccc(F)c([C@]2(C(F)F)COCC(N)=N2)c1 [Example 18, (R)-5-Difluoromethyl-5-[2-fluoro-5-(3-methoxy-pyrazin-2-ylamino)-phenyl]-5,6-dihydro-2H-[1,4]oxazin-3-ylamine] |  |
| 5.89 | 6.80 | 6.51 | CCOc1cccnc1Nc1ccc(F)c([C@]2(C(F)F)COCC(N)=N2)c1 [Example 19, (R)-5-Difluoromethyl-5-[5-(3-ethoxy-pyridin-2-ylamino)-2-fluoro-phenyl]-5,6-dihydro-2H-[1,4]oxazin-3-ylamine] |  |
| 5.89 | 6.66 | 6.28 | NC1=N[C@@](c2cc(Nc3ncccc3OCC(F)F)ccc2F)(C(F)F)COC1 [Example 20, (R)-5-{5-[3-(2,2-Difluoro-ethoxy)-pyridin-2-ylamino]-2-fluoro-phenyl}-5-difluoromethyl-5,6-dihydro-2H-[1,4]oxazin-3-ylamine] |  |
| 5.82 | 6.25 | 6.37 | COc1cncnc1Nc1ccc(F)c([C@]2(C(F)F)COCC(N)=N2)c1 [Example 21, (R)-5-Difluoromethyl-5-[2-fluoro-5-(5-methoxy-pyrimidin-4-ylamino)-phenyl]-5,6-dihydro-2H-[1,4]oxazin-3-ylamine] |  |
| 6.01 | 6.47 | 6.62 | NC1=N[C@@](c2cc(Nc3ncccc3OC(F)F)ccc2F)(C(F)F)COC1 [Example 22, (R)-5-[5-(3-Difluoromethoxy-pyridin-2-ylamino)-2-fluoro-phenyl]-5-difluoromethyl-5,6-dihydro-2H-[1,4]oxazin-3-ylamine] |  |
| 7.40 | 7.96 | 7.29 | C[C@@]1(c2cc(Nc3ncnc4cc(Cl)cnc34)ccc2F)CO[C@@](C)(C(F)(F)F)C(N)=N1 [Example 23, [3-((3R,6R)-5-Amino-3,6-dimethyl-6-trifluoromethyl-3,6-dihydro-2H-[1,4]oxazin-3-yl)-4-fluoro-phenyl]-(7-chloro-pyrido[3,2-d]pyrimidin-4-yl)-amine di-hydrochloride] |  |
| 7.08 | 6.55 | 7.34 | C[C@@]1(c2cc(Nc3ncnc4cc(C(F)(F)F)cnc34)ccc2F)CO[C@@](C)(C(F)(F)F)C(N)=N1 [Example 24, [3-((3R,6R)-5-Amino-3,6-dimethyl-6-trifluoromethyl-3,6-dihydro-2H-[1,4]oxazin-3-yl)-4-fluoro-phenyl]-(7-trifluoromethyl-pyrido[3,2-d]pyrimidin-4-yl)-amine] |  |
| < 5.00 | < 5.00 |  | COc1c(N)ncnc1Nc1ccc(F)c([C@]2(C(F)F)COCC(N)=N2)c1 [N-[3-((R)-5-amino-3-difluoromethyl-3,6-dihydro-2H-[1,4]oxazin-3-yl)-4-fluoro-phenyl]-5-methoxy-pyrimidine-4,6-diamine] |  |

| Compound | pIC50 (human BACE-1) | pIC50 (human BACE-2) | pIC50 ([1]; Cricetulus griseus) | pIC50 [1] |
| --- | --- | --- | --- | --- |
| NC1=N[C@@](c2cc(Nc3nccn4ccnc34)ccc2F)(C(F)F)COC1 [Example 13, [3-((R)—S-Amino-3-difluoromethyl-3,6-dihydro-2H-[1,4]oxazin-3-yl)-4-fluoro-phenyl]-imidazo[1,2-a]pyrazin-8-yl-amine] | 5.85 | 6.39 |  | 6.59 |
